In article PMC5762315, “Inhibition of polo-like kinase 4 (PLK4): a new therapeutic option for rhabdoid tumors and pediatric medulloblastoma” (Oncotarget, 2017):
Values joined by “and” are separate entries in the source; they are usually repeats but may differ in a detail not shown here. Identical values can stand only once.

How the values were obtained:
Experiment in all cases: LanthaScreen Eu Kinase Binding Assay, panel of 486 biochemical kinase assays
various kinases [1] = molecular target: various kinases (Homo sapiens, UniProt Q86YV6); settings: MYLK4
various kinases [2] = molecular target: various kinases (Homo sapiens, UniProt P06493); settings: CDK1/cyclin A2
Chain of various kinases (Homo sapiens, UniProt P06493) (P06493 whole entry): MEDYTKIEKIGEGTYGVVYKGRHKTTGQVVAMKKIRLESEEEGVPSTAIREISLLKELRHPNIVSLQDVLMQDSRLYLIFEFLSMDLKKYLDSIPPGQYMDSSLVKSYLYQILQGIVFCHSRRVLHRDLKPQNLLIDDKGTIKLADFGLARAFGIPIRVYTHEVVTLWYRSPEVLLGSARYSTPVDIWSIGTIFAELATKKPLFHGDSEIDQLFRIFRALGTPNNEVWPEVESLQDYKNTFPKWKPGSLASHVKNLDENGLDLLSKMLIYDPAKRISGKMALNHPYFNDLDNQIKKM

various kinases [3] = molecular target: various kinases (Homo sapiens, UniProt O43353); settings: kinase RIPK2; LanthaScreen Binding
Chain of various kinases (Homo sapiens, UniProt O43353) (O43353 whole entry): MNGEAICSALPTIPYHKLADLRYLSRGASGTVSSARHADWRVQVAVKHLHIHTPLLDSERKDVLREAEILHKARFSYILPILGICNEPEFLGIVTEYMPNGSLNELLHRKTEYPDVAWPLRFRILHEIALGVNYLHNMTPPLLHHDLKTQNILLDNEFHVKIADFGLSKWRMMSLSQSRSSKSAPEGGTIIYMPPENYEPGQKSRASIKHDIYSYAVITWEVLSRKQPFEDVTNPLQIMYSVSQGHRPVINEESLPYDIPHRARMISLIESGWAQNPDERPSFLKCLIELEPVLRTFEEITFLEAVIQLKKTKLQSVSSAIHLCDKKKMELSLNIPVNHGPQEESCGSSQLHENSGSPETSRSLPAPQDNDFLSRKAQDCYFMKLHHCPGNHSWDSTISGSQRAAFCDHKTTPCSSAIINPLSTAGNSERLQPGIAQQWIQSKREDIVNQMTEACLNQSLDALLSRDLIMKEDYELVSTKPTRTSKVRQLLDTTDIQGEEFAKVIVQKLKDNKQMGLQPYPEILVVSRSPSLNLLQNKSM

various kinases [4] = molecular target: various kinases (Homo sapiens, UniProt Q9UM73, C1156Y); settings: ALK C1156Y
Chain of various kinases (Homo sapiens, UniProt Q9UM73, C1156Y) (Q9UM73 19-1620 C1156Y): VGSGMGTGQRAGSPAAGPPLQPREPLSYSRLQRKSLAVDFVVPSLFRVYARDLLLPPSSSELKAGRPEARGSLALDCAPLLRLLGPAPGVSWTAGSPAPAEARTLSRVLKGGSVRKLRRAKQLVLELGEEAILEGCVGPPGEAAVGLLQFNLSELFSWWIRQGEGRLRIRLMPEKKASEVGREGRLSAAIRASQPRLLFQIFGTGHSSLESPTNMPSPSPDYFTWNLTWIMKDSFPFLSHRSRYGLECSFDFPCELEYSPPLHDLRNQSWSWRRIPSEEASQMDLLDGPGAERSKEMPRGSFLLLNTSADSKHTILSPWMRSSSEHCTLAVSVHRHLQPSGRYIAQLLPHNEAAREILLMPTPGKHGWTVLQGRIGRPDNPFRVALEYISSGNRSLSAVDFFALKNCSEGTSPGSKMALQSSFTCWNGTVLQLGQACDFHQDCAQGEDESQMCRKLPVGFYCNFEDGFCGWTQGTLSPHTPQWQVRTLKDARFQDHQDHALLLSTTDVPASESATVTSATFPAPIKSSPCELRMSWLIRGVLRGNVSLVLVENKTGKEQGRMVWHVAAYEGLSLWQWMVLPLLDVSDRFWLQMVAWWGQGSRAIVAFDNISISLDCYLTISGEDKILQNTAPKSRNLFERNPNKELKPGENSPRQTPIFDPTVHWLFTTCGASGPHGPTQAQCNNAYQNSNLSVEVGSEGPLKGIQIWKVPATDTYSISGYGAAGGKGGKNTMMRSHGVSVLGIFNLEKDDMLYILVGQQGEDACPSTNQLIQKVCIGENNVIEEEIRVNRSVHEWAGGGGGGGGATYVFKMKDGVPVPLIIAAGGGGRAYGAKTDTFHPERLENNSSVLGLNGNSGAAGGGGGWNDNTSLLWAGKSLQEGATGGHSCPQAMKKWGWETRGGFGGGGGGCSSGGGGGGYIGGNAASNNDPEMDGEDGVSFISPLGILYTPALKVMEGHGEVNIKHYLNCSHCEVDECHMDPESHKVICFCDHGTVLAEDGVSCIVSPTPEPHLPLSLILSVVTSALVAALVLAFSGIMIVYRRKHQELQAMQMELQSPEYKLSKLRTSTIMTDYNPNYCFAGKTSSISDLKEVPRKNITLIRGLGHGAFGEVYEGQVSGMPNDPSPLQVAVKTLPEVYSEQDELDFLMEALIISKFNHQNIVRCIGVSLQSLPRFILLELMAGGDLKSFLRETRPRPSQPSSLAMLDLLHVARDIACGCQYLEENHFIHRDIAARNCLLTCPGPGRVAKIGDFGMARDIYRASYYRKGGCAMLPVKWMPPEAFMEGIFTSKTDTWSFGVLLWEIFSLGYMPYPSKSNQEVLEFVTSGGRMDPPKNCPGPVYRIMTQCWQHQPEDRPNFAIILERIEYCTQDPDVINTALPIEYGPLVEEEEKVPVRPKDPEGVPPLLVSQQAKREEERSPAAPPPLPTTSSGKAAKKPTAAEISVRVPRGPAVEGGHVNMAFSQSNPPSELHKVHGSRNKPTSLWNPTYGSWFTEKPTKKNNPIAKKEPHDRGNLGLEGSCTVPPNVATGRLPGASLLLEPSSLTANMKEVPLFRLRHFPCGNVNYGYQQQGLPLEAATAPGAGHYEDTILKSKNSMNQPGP

various kinases [5] = molecular target: various kinases (Homo sapiens, UniProt Q8N5S9); settings: CAMKK1 (CAMKKA)
Chain of various kinases (Homo sapiens, UniProt Q8N5S9) (Q8N5S9 whole entry): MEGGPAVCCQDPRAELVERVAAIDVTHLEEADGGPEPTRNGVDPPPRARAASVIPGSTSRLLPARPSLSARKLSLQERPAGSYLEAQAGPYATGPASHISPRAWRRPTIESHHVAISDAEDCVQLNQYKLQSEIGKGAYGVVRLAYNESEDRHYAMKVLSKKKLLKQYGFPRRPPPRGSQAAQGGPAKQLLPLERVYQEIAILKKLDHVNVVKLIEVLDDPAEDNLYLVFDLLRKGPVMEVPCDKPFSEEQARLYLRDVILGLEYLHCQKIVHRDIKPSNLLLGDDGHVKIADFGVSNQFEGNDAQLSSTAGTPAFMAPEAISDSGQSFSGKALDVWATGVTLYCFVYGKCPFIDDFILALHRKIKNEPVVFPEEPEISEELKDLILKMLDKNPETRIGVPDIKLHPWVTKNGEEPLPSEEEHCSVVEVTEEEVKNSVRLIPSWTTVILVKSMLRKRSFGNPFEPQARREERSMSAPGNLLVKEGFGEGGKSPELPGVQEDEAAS

various kinases [6] = molecular target: various kinases (Homo sapiens, UniProt Q13555); settings: CAMK2G (CaMKII gamma)
various kinases [7] = molecular target: various kinases (Homo sapiens, UniProt Q02750); settings: MAP2K1 (MEK1)
Chain of various kinases (Homo sapiens, UniProt Q02750) (Q02750 whole entry): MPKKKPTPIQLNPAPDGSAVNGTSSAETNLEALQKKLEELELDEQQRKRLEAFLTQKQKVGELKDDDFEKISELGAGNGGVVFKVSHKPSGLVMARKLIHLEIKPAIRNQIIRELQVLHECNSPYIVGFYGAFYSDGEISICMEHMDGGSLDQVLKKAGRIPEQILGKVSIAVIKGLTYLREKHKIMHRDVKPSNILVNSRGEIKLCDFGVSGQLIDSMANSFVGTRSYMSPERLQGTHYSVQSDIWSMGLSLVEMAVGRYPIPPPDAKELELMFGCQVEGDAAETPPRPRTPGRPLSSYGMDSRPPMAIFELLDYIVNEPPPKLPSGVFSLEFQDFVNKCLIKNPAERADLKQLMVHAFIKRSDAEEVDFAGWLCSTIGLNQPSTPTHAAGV

various kinases [8] = molecular target: various kinases (Homo sapiens, UniProt P45983); settings: MAPK8 (JNK1)
Chain of various kinases (Homo sapiens, UniProt P45983) (P45983 whole entry): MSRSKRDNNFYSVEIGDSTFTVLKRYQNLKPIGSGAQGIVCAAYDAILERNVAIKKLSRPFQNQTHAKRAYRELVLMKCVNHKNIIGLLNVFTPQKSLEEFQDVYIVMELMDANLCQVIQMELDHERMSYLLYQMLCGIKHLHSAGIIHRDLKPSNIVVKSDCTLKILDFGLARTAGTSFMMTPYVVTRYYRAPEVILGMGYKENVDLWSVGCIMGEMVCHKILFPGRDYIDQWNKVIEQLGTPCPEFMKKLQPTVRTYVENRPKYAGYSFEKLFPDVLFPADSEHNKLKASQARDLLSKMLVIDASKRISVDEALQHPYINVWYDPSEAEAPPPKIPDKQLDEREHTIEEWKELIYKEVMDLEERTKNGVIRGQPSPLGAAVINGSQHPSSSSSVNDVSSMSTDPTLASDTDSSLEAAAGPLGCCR

various kinases [9] = molecular target: various kinases (Homo sapiens, UniProt Q8NI60); settings: ADCK3
various kinases [10] = molecular target: various kinases (Homo sapiens, UniProt Q8IWQ3); settings: BRSK2
Chain of various kinases (Homo sapiens, UniProt Q8IWQ3) (Q8IWQ3 whole entry): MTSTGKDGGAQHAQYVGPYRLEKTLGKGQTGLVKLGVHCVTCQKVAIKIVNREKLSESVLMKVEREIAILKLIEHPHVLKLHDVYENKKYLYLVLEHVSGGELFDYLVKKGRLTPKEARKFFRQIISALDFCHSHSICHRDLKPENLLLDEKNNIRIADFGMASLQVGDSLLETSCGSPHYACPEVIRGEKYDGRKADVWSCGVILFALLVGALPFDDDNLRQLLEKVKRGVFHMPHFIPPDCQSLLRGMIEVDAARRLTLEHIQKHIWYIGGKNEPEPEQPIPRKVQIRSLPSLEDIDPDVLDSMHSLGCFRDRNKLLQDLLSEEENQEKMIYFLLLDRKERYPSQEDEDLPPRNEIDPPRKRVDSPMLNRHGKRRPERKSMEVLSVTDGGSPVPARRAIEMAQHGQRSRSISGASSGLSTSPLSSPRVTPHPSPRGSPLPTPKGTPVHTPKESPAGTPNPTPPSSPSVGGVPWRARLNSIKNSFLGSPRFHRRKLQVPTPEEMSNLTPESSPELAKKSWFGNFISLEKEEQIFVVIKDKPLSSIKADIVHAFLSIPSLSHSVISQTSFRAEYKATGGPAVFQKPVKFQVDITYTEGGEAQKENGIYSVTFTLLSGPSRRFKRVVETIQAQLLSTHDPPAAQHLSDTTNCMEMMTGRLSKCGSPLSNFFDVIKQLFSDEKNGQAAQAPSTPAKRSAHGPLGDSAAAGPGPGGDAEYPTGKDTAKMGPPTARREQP

various kinases [11] = molecular target: various kinases (Homo sapiens, UniProt P10721, T670E); settings: KIT T670E
various kinases [12] = molecular target: various kinases (Homo sapiens, UniProt P54646)
Chain of various kinases (Homo sapiens, UniProt P54646) (P54646 whole entry): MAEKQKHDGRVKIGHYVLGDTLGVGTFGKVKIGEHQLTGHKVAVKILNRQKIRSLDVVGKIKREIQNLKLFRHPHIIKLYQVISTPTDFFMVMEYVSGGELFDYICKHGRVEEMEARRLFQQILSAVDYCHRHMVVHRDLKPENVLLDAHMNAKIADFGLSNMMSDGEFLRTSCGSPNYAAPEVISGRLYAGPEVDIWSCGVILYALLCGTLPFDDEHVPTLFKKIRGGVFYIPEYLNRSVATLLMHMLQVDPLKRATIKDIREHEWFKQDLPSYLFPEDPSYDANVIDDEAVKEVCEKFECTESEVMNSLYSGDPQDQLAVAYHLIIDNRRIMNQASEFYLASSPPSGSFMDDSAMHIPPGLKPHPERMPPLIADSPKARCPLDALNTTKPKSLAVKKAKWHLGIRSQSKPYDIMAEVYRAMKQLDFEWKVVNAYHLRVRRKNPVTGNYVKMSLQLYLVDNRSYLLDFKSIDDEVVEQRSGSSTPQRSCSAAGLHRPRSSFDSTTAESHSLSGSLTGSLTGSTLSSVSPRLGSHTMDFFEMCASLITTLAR

various kinases [13] = molecular target: various kinases (Homo sapiens, UniProt Q8NEV4); settings: MYO3A (MYO3 alpha)
various kinases [14] = molecular target: various kinases (Homo sapiens, UniProt P27037); settings: ACVR2A
various kinases [15] = molecular target: T1, various kinases (Homo sapiens, UniProt Q9UKI8); settings: kinase TLK1; LanthaScreen Binding
T1 sequence (Q9UKI8 1-766): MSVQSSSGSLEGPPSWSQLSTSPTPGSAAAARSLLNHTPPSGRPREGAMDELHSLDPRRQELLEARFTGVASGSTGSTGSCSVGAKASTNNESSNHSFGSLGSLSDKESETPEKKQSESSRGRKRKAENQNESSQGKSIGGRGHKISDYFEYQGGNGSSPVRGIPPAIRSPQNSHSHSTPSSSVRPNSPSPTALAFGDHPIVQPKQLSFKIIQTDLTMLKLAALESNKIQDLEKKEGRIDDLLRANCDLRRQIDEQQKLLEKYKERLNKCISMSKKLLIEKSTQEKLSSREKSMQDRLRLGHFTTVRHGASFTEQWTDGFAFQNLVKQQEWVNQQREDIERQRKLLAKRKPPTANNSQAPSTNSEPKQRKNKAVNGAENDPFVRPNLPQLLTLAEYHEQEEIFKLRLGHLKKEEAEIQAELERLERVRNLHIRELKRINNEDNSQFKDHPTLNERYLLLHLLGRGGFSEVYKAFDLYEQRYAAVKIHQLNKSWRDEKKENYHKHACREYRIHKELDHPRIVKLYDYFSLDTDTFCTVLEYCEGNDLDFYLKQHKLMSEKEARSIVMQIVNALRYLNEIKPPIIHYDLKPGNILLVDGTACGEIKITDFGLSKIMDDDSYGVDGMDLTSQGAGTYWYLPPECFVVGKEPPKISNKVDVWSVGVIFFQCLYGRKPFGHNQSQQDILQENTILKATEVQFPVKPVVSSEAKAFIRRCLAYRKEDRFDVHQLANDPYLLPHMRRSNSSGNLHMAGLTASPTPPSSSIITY

various kinases [16] = molecular target: various kinases (Homo sapiens, UniProt O00311); settings: CDC7/DBF4
various kinases [17] = molecular target: T2, various kinases (Homo sapiens, UniProt Q7L7X3); settings: kinase TAOK1; LanthaScreen Binding
T2 sequence (Q7L7X3 1-1001): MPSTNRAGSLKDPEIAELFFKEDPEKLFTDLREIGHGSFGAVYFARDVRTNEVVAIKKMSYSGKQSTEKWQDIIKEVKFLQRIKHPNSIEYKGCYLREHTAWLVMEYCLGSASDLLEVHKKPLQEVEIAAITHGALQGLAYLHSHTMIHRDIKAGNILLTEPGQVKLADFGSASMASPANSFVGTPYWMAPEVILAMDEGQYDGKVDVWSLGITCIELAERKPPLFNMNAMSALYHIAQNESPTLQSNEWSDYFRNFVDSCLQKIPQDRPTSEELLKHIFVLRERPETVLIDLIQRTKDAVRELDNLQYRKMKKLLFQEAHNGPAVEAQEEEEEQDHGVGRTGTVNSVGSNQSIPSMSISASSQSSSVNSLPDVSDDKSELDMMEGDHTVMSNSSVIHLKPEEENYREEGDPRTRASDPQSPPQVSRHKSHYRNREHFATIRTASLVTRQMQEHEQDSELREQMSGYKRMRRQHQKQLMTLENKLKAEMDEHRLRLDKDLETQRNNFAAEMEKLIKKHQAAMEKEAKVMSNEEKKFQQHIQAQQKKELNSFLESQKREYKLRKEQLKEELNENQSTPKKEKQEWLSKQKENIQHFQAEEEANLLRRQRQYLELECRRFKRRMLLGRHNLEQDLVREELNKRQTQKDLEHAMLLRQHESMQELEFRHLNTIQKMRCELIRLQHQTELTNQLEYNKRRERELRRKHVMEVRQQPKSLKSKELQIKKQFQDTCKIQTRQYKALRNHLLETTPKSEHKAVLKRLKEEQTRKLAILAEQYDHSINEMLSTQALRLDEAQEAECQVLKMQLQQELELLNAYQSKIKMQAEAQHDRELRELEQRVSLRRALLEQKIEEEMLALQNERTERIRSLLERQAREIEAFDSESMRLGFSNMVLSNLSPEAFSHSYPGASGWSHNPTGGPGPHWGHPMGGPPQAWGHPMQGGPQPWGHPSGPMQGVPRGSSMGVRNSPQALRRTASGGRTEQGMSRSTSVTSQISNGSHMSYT

various kinases [18] = molecular target: various kinases (Homo sapiens, UniProt Q12866, A708S); settings: MERTK (cMER) A708S

With `COc1ccc2c(c1)[C@]1(C[C@H]1c1ccc3c(/C=C/c4ccc(CN5C[C@@H](C)O[C@@H](C)C5)cc4)n[nH]c3c1)C(=O)N2` [CFI-400945] the “% Inhibition” value (various kinases [1]) was 7% and 13%, the “% Inhibition” value (various kinases [2]) was 24% and 17% and the “% Inhibition Average” value (various kinases [3]) was 3%. The “% Inhibition Duplicate #1” value (various kinases [3]) was 3%, the “% Inhibition Duplicate #2” value (various kinases [3]) was 3% and the “% Inhibition” value (various kinases [4]) was 47% and 51%. For the same compound, the “% Inhibition” value (various kinases [5]) was -4% and -3%, the “% Inhibition” value (various kinases [6]) was 50% and 36% and the “% Inhibition” value (various kinases [7]) was 9% and 8%. The “% Inhibition” value (various kinases [8]) was 0% and -1%, the “% Inhibition” value (various kinases [9]) was -1% and -4% and the “% Inhibition” value (various kinases [10]) was -4% and -7%. The “% Inhibition” value (various kinases [11]) was 9% and 6%, the “% Inhibition” value (various kinases [12]; AMPK (A2/B2/G1)) was 14% and 19% and the “% Inhibition” value (various kinases [12]; AMPK (A2/B2/G2)) was 14% and 12%. The “% Inhibition” value (various kinases [13]) was 8%, the “% Inhibition” value (various kinases [14]) was 18% and 15% and the “% Inhibition Average” value (various kinases [15]) was 0%. The “% Inhibition Duplicate #1” value (various kinases [15]) was -1%, the “% Inhibition Duplicate #2” value (various kinases [15]) was 0% and the “% Inhibition” value (various kinases [16]) was 13% and 16%. For the same compound, the “% Inhibition Average” value (various kinases [17]) was 14%, the “% Inhibition Duplicate #1” value (various kinases [17]) was 15% and the “% Inhibition Duplicate #2” value (various kinases [17]) was 13%. The “% Inhibition” value (various kinases [18]) was 7% and 2%.
